Laboratory results: patent US20240398783A1, “Compounds and Pharmaceutical Compositions Comprising Inhibitors of Amyloid Peptide Interactions with Glycosaminoglycans, Methods of Treatment and Use Thereof” (Gismo Therapeutics, Inc., priority 2021, published 2024)
Counter-ions that a name gives are not always drawn.

Each compound was assayed against Alpha-Synuclein Protofibril binding to heparin (HS-GAG) (Homo sapiens, UniProt P37840) (assay: Inhibition of alpha-synuclein protofibril binding to immobilized heparin-BSA (ELISA)). Settings: 30 μM compound; alpha-synuclein protofibrils, heparin-BSA; read-out: Alpha-Synuclein/Heparin Activity (% inhibition class).
Set-up: species or system porcine
Description: Porcine intestinal mucosa heparin conjugated to Bovine Serum Albumin (Heparin-BSA) was prepared as described (Najjam, S. et al. 1997, Cytokine 12, 1013-1022). Heparin is a sulfated HS-GAG and is commonly used as a HS-GAG in biochemical and binding assays (Lindahl, U. and Kjellen, L. (2013) ibid). Heparin-BSA at 0.01 mg/ml in Phosphate Buffered Saline (PBS; pH 7.4) was added to a 96 well polystyrene ELISA plate (NUNC Cat. No. 449824; 100 μl per well) and incubated Over Night (ON) at 4 degrees Celsius. For negative controls, ELISA plates were coated with BSA instead of Heparin-BSA, using the same procedure. Following the incubation, the plate was washed consecutively, by immersion, with de-ionized water and PBS (pH 7.4). The ELISA plate was then blocked with nonfat milk (2%, 200 μl per well) for 2 hours at Room Temperature (RT) with gentle shaking. Following blocking, the plate was washed with de-ionized water then PBS (pH 7.4). GBAPs were dissolved and diluted in PBS (pH 6.5, supplemented with 0.1% BSA) at desired concentrations, added to the ELISA plates containing immobilized Heparin-BSA (100 μl per well) and incubated for 2 hours at RT with gentle shaking. Following incubation, the plate was washed with de-ionized water and three times with PBS (pH 6.5) plus Tween. Bound GBAP was detected by a monoclonal antibody specific for that GBAP, followed by incubation with secondary antibody conjugated to horseradish peroxidase (HRP). Antibody was diluted in PBS (pH 6.5 supplemented with 1% BSA). Following each incubation with antibody, the plate was washed with de-ionized water and three times with PBS (pH 6.5) wash buffer containing 0.1% Tween. The peroxidase substrate chromogen, TMB (Dako Cat. No. S1599) was added (100 μl per well) to the ELISA plate and incubated at room temperature. After 5 minutes ELISA Stop Solution (hydrochloric acid 1N, sulfuric acid 3N) was added (100 μl per well) to stop the peroxidase catalyzed colorimetric reaction. The Optical Density of the samples was measured at 450 nm using an ELISA plate reader (BioTek Synergy H1). Following color development, the % inhibition compared to control (BSA-coated plates) was determined. IC-50s were calculated using GraphPad Prism software.
The assay was performed as described in Example 43, with the following modifications. Following to coating the plates with Heparin-BSA, plates were washed as described. The compounds were dissolved in DMSO at 10 mM final concentration and further diluted prior to assay. DMSO concentration in the screening well was up to […]. Individual compounds were co-incubated with alpha-synuclein on plates containing immobilized heparin. Alpha-synuclein purchased from rPeptide (Cat. No. S1001) was used to prepare protofibrils as described in Ihse et al., 2017. Alpha-synuclein was dissolved in PBS (pH7.4) to a concentration of 140 μM (˜2 mg/ml), and incubated for 7 days at 37° C. with rotary agitation (400 rpm). Resulting fibrils were sonicated for 10 minutes in ultrasonic water bath, quickly frozen and kept in aliquots at −80 degrees Celsius. Protofibrillar alpha-synuclein diluted in PBS (pH 6.5, supplemented with BSA, 0.1%) was added to the ELISA plate (100 μl per well) and incubated for 2 hours at RT with gentle shaking. Following the incubation, the plate was washed with de-ionized water and three times with PBS (pH 6.5) plus Tween. Bound Alpha-synuclein was detected by Anti-Alpha-synuclein Monoclonal Antibody 211 (Santa Cruz Cat. No. sc-12767), followed by secondary anti-IgG antibody conjugated to HRP (R&D System, Cat. No. HAF007). Following to color development with TMB, as described in Example 43, the Optical Density of the samples was measured at 450 nm using an ELISA plate reader. Following color development, the % inhibition compared to control (no compound, DMSO control) for every compound was determined.
An example of inhibition curve is shown in FIG. 1 for Inhibitor Compounds 22 and 24. […]

Row | Structure (SMILES) | inhibition at 30 µM
1 | CCN(CC)Cc1cccc(Nc2ccnc3cc(Cl)ccc23)c1 [Compound 42, 7-chloro-N-(3-((diethylamino)methyl)phenyl)quinolin-4-amine] | < 30%
2 | CN(C)Cc1cc(Nc2ccnc3cc(Cl)ccc23)ccn1 [Compound 45, 7-chloro-N-(2-((dimethylamino)methyl)pyridin-4-yl)quinolin-4-amine] | < 30%

Same assay, conditions: Alpha-Synuclein/Heparin Activity (IC-50), alpha-synuclein protofibrils, heparin-BSA

Row | Structure (SMILES) | IC50
3 | Clc1ccc2c(Nc3ccc(-n4cncn4)nc3)ncnc2c1 [Compound 34, N-(6-(1H-1,2,4-triazol-1-yl)pyridin-3-yl)-7-chloroquinazolin-4-amine phosphoric acid salt] | 5.06 µM
4 | CC(=NNc1ccnc2cc(Cl)ccc12)c1ccc(-n2ccnc2)cc1 [Compound 36, 4-(2-(1-(4-(1H-imidazol-1-yl)phenyl)ethylidene)hydrazineyl)-7-chloroquinoline phosphate] | 4.17 µM
5 | Clc1ccc2c(N/N=C/c3ccc(-n4ccnc4)cc3)ccnc2c1 [Compound 38, 4-(2-(4-(1H-imidazol-1-yl)benzylidene)hydrazineyl)-7-chloroquinoline dihydrochloride] | 1.88 µM
6 | CCN1CCN(c2ccc(Nc3ccnc4cc5ccccc5cc34)cc2)CC1 [Compound 39, N-(4-(4-ethylpiperazin-1-yl)phenyl)benzo[g]quinolin-4-amine] | 3.39 µM
7 | Clc1ccc2c(Nc3ccc(-n4cncn4)nc3)ccnc2c1 [Compound 44, N-(6-(1H-1,2,4-triazol-1-yl)pyridin-3-yl)-7-chloroquinolin-4-amine] | 19.2 µM

Same assay, conditions: alpha-synuclein protofibrils, heparin-BSA; read-out: Alpha-Synuclein/Heparin Activity (IC-50)

Row | Structure (SMILES) | IC50
8 | CC(=NNc1ncnc2cc(Cl)ccc12)c1ccnc(-n2cnc(C)c2C)c1 [Compound 28, 7-chloro-4-(2-(1-(2-(4,5-dimethyl-1H-imidazol-1-yl)pyridin-4-yl)ethylidene)hydrazineyl)quinazoline] | 3.23 µM
9 | Clc1ccc2c(Nc3ccc(-n4ccnc4)nc3)ncnc2c1 [Compound 41, N-(6-(1H-imidazol-1-yl)pyridin-3-yl)-7-chloroquinazolin-4-amine] | 12.8 µM

Same assay, conditions: read-out: Alpha-Synuclein/Heparin Activity (% inhibition class)

Row | Structure (SMILES) | inhibition at 30 µM
10 | C/C(=N\Nc1ncnc2cc(Cl)ccc12)c1cccc(CN(C)C)c1 [Compound 29, 1-(3-(1-(2-(7-chloroquinazolin-4-yl)hydrazineylidene)ethyl)phenyl)—N,N-dimethylmethanamine] | > 30%
11 | C/C(=N\Nc1ncnc2cc(Cl)ccc12)c1cccc(N2CCN(C)CC2)c1 [Compound 30, 7-chloro-4-(2-(1-(3-(4-methylpiperazin-1-yl)phenyl)ethylidene)hydrazineyl)quinazoline] | > 30%
12 | COc1cc(Nc2nncc3cc(Cl)ccc23)cnc1-n1cnc(C)c1C [Compound 31, 6-chloro-N-(6-(4,5-dimethyl-1H-imidazol-1-yl)-5-methoxypyridin-3-yl)phthalazin-1-amine phosphoric acid salt] | < 30%
13 | C/C(=N\Nc1ncnc2cc(Cl)ccc12)c1ccc(-n2cncn2)nc1 [Compound 32, (E)-4-(2-(1-(6-(1H-1,2,4-triazol-1-yl)pyridin-3-yl)ethylidene)hydrazineyl)-7-chloroquinazoline] | > 30%
14 | COc1cc(Nc2cncc3cc(Cl)ccc23)cnc1-n1cnc(C)c1C [Compound 33, 7-chloro-N-(6-(4,5-dimethyl-1H-imidazol-1-yl)-5-methoxypyridin-3-yl)isoquinolin-4-amine phosphoric acid salt] | < 30%
15 | Fc1cc(/C=N/Nc2ccnc3cc(Cl)ccc23)ccc1-n1ccnc1 [Compound 35, (E)-7-chloro-4-(2-(3-fluoro-4-(1H-imidazol-1-yl)benzylidene)hydrazineyl)quinoline hydrochloride] | < 30%
16 | Cc1cn(-c2ccc(Nc3cncc4cc(Cl)ccc34)cn2)c(C)n1 [Compound 37, 7-chloro-N-(6-(2,4-dimethyl-1H-imidazol-1-yl)pyridin-3-yl)isoquinolin-4-amine phosphoric acid salt] | < 30%
17 | Cc1ncn(-c2ncc(Nc3ncnc4cc(Cl)ccc34)cc2O)c1C [Compound 40, 5-((7-chloroquinazolin-4-yl)amino)-2-(4,5-dimethyl-1H-imidazol-1-yl)pyridin-3-ol phosphoric acid salt] | < 30%
18 | C[n+]1ccn(-c2ccc(Nc3ncnc4cc(Cl)ccc34)cn2)c1 [Compound 43, 1-(5-((7-chloroquinazolin-4-yl)amino)pyridin-2-yl)-3-methyl-1H-imidazol-3-ium iodide phosphoric acid salt] | < 30%
